Where a SMILES comes first, the peptide text is derived from it. [ ]: non-standard residue; d: D form. Ahx = NCCCCCC(=O)O
What was measured:
HeLa [1] = experiment: Cellular uptake in human HeLa cells assessed as drug translocation through nucleolar membrane by time-lapsed confocal microscopy; format: ADME, cell-based
HeLa [2] = experiment: Drug penetration in human HeLa cells at 15 to 50 uM by time-lapsed confocal microscopy relative to control; format: ADME, cell-based
HeLa [3] = experiment: Toxicity against human HeLa cells upto 100 uM after 24 hrs by MTT assay; format: cell-based

Activity (HeLa [1]) | Drug uptake (HeLa [2]) | Compound | Activity (HeLa [3])
Dose-dependent effect and tde | 50% | NCCCC[C@H](NC(=O)CCCCCNC(=O)CNC(=O)CNC(=O)[C@H](CCCCN)NC(=O)[C@H](CCCCN)NC(=O)[C@H](Cc1cnc[nH]1)NC(=O)[C@H](CS)NC(=O)[C@H](CCC(N)=O)NC(=O)[C@H](CCCCN)NC(=O)[C@@H](N)Cc1ccc(O)cc1)C(=O)N[C@@H](CCCCN)C(=O)NCC(=O)N[C@@H](CO)C(=O)NCC(=O)O (H-YKQCHKKGG[Ahx]KKGSG-OH) | Non-toxic
 |  | H-GSGKKGGKKHCQKY-OH | Non-toxic
 |  | H-GSGKKGGKKICQKY-OH | Non-toxic
 | 50% | H-YKQCHKKGGKKGSG-OH | Non-toxic

Source: ChEMBL document CHEMBL1140202, “A novel cell-penetrating peptide sequence derived by structural minimization of a snake toxin exhibits preferential nucleolar localization” (J Med Chem, 2008)
